Measurements published in publication PMC10539329, “NLRP6 potentiates PI3K/AKT signalling by promoting autophagic degradation of p85α to drive tumorigenesis” (Nature Communications, 2023).

Experiments:
[1] = tested on: LN229 cells; experiment: Cell proliferation / viability assay, LN229; format: cell-based, Human; details: TAT-peptide
Procedure: (§1) Cells were seeded into 12-well plates at a density of 1 × 10^4 cells per well. Manual cell counting was carried out at the indicated times using trypan blue and a haemocytometer.
(§2) To determine the antitumour effect of the peptide in vitro, the peptide was incubated with cells for 24 h when the cells were grown to approximately 80% confluence. Cell viability was measured at the indicated time points. The cell lysates were collected for immunoprecipitation as described above. To determine the antitumour effect of the peptide in vivo, the peptide was stereotactically injected using identical coordinates of tumour implantation in 3 μl of PBS. Briefly, 3 weeks after intracranial tumour cell implantation, mice with similar tumour sizes and similar weights were selected and randomly arranged into five groups (n = 6): PBS, PepC (0.25 mg/kg TAT-PepC per injection), Pep9 low dose (Pep9 L, 0.05 mg/kg TAT-Pep9 per injection), Pep9 medium dose (Pep9 M, 0.1 mg/kg TAT-Pep9 per injection), and Pep9 high dose (Pep9 H, 0.25 mg/kg TAT-Pep9 per injection). Each mouse received intratumoural injection every 10 days (at Day 21, Day 31, Day 41, and Day 51), and tumour growth was monitored at Day 21, Day 41, and Day 56. The experiment was terminated at Day 80, and all the mice (if they were alive) were sacrificed as previously described.

[2] = tested on: U251 cells; experiment: Cell proliferation / viability assay, U251 (PTEN deficient); format: cell-based, Human; details: Supplementary Figure 8i
Procedure: as §1, §2

[3] = tested on: HS683 cells; experiment: Cell proliferation / viability assay, HS683; format: cell-based, Human; details: Supplementary Figure 8f
Procedure: as §1, §2

[4] = tested on: p85α; experiment: IHC of p85α in tumour tissues from peptide-treated mice; format: in vivo, nude mice with human tumour cells; details: PepC
Procedure: In brief, the tissue sections were deparaffinized in xylene and 50–100% ethanol sequentially and then rehydrated in deionized water. The sections were immersed in Antigen Retrieval Solution in a pressure cooker and kept at 120 °C for 2.5 min. Endogenous peroxidase activity was blocked with peroxidase blocking reagent (3% hydrogen peroxide in water) for 15 min. The sections were incubated with primary antibodies in incubation buffer at 4 °C overnight. The sections were rinsed with wash buffer and incubated with secondary antibodies at room temperature for 1 h. Finally, the sections were immersed in DAB Chromogen Solution for suitable staining and counterstained with Haematoxylin QS for 3 min. The protein score was calculated by multiplying the percentage of positive cells (<10% = 0, 10–25% = 1, 25–50% = 2, 50–75% = 3, >75% = 4) by the intensity (negative = 0, weak staining = 1, moderate staining = 2, or strong staining = 3). The stained sections were evaluated by two independent pathologists who were blinded to the clinical characteristics.
as §2

[5] = tested on: purified NLRP6; experiment: ELISA, binding of HRP-conjugated peptide to purified NLRP6; details: HRP-conjugated peptide on NLRP6, 1 h, absorbance 450 nm
Procedure: DNA encoding full-length NLRP6 was codon optimized and chemically synthesized by Genewiz (Soochow, China). The DNA sequence was subcloned into NdeI-XhoI sites of a pDB-His-MBP vector (kindly given by Pro. Chenggui Han, China Agricultural University, Beijing, China). Recombinant NLRP6 protein was expressed and purified following previous reports, with slight modifications. Briefly, the protein was expressed in E. coli (DE3) at 16 °C with 0.5 mM IPTG induction overnight. Then, the protein was purified by Ni affinity and gel filtration chromatography. The p85α WT and p85α mutant sequences were chemically synthesized and subcloned into BamHI-XhoI sites of a pGEX-6P-1 plasmid by GenScript (Nanjing, China). The E. coli (DE3) transformed with the plasmids were grown in LB medium at 37 °C. The culture medium was supplemented with 0.5 mM IPTG followed by incubation at 16 °C for 16–18 h. The proteins were purified by glutathione-affinity chromatography (Smart-Life Sciences, Changzhou, China) followed by gel filtration chromatography (Cytiva, MA, USA) using PBS. The protein extinction coefficient was calculated by ProtParam, and the protein concentration was determined by the ultraviolet spectrophotometry method.
(§3) The 96-well plate was coated with bovine serum albumin (BSA) or purified NLRP6. HRP-conjugated PepC or HRP-conjugated Pep9 was incubated with BSA or NLRP6 for 1 h, and the unbound peptide was washed away. The HRP substrate was added, and the absorbance was detected at 450 nm. For the competitive ELISA, the 96-well plate was coated with purified p85α. The binding of NLRP6 to p85α competed with 10 μM PepC or 5 μM, 10 μM, 20 μM Pep9 for 1 h.

[6] = tested on: bovine serum albumin (BSA); experiment: ELISA, binding of HRP-conjugated peptide to BSA (control); details: HRP-conjugated peptide on BSA, 1 h, absorbance 450 nm
Procedure: as §3

Sequence: SAEGYQYRALYD [Pep1, peptide found on the p85α SH3 domain; selected as the control named PepC]
- Relative cell viability ([1]; concentration 5 (unit not given), replicate 1): 0.87
- Relative cell viability ([1]; concentration 5 (unit not given), replicate 2): 0.87
- Relative cell viability ([1]; concentration 5 (unit not given), replicate 3): 0.99
- Relative cell viability ([1]; concentration 10 (unit not given), replicate 1): 1.05
- Relative cell viability ([1]; concentration 10 (unit not given), replicate 2): 0.89
- Relative cell viability ([1]; concentration 10 (unit not given), replicate 3): 0.97
- Relative cell viability ([1]; concentration 20 (unit not given), replicate 1): 0.94
- Relative cell viability ([1]; concentration 20 (unit not given), replicate 2): 0.96
- Relative cell viability ([1]; concentration 20 (unit not given), replicate 3): 1.01
- Relative cell viability ([1]; concentration 30 (unit not given), replicate 1): 0.95
- Relative cell viability ([1]; concentration 30 (unit not given), replicate 2): 0.96
- Relative cell viability ([1]; concentration 30 (unit not given), replicate 3): 1.02
- Relative cell viability ([2]; 5 μM, replicate 1): 1.01
- Relative cell viability ([2]; 5 μM, replicate 2): 1.04
- Relative cell viability ([2]; 5 μM, replicate 3): 0.94
- Relative cell viability ([2]; 10 μM, replicate 1): 0.88
- Relative cell viability ([2]; 10 μM, replicate 2): 0.87
- Relative cell viability ([2]; 10 μM, replicate 3): 0.79
- Relative cell viability ([2]; 20 μM, replicate 1): 0.99
- Relative cell viability ([2]; 20 μM, replicate 2): 1.04
- Relative cell viability ([2]; 20 μM, replicate 3): 0.91
- Relative cell viability ([2]; 30 μM, replicate 1): 1.05
- Relative cell viability ([2]; 30 μM, replicate 2): 0.89
- Relative cell viability ([2]; 30 μM, replicate 3): 0.98
- Relative cell viability ([3]; 5 μM, replicate 1): 0.98
- Relative cell viability ([3]; 5 μM, replicate 2): 0.96
- Relative cell viability ([3]; 5 μM, replicate 3): 0.94
- Relative cell viability ([3]; 10 μM, replicate 1): 0.96
- Relative cell viability ([3]; 10 μM, replicate 2): 0.95
- Relative cell viability ([3]; 10 μM, replicate 3): 0.91
- Relative cell viability ([3]; 20 μM, replicate 1): 0.94
- Relative cell viability ([3]; 20 μM, replicate 2): 0.90
- Relative cell viability ([3]; 20 μM, replicate 3): 0.89
- Relative cell viability ([3]; 30 μM, replicate 1): 0.92
- Relative cell viability ([3]; 30 μM, replicate 2): 0.88
- Relative cell viability ([3]; 30 μM, replicate 3): 0.85
- score (Supplementary Figure 8k) ([4]; replicate 1): 2
- score (Supplementary Figure 8k) ([4]; replicate 2): 1
- score (Supplementary Figure 8k) ([4]; replicate 3): 1
- score (Supplementary Figure 8k) ([4]; replicate 4): 3
- score (Supplementary Figure 8k) ([4]; replicate 5): 1
- ELISA value ([5]; replicate 1): 0.12
- ELISA value ([5]; replicate 2): 0.10
- ELISA value ([5]; replicate 3): 0.06
- ELISA value ([6]; replicate 1): 0.10
- ELISA value ([6]; replicate 2): 0.15
- ELISA value ([6]; replicate 3): 0.12
